# According to US20030220361A1, “Nicotinamide derivatives and a tiotropium salt in combination for the treatment of diseases” (priority 2002, published 2003):
# Test system: TNFα release from human peripheral blood mononuclear cells
# Assay: Inhibition of LPS-stimulated TNFα release from human peripheral blood mononuclear cells (TNFα screen)
# Assay type: cell-based
# Conditions: human PBMC, LPS stimulation, 18 hours incubation, TNFα in supernatant by ELISA
# Experimental: Venous blood is collected from healthy volunteers and the mononuclear cells purified by centrifugation through Histopaque (Ficoll) cushions. TNFα production from these cells is stimulated by addition of lipopolysaccharide. After 18 hours incubation in the presence of LPS, the cell supernatant is removed and the concentration of TNFa in the supernatant determined by ELISA. Addition of PDE4 inhibitors reduces the. amount of TNFQ produced. An IC50 is determined which is equal to the concentration of compound that gives 50% inhibition TNFα production as compared to the LPS stimulated control wells.
row,IC50 [nM],Structure (SMILES)
1,25.5,"Cc1ccc(C(=O)N2CCC(NC(=O)c3cc(F)cnc3Oc3ccc(F)cc3)CC2)c(O)c1 [Example 79, 5-Fluoro-2-(4-fluoro-phenoxy)-N-[1-(2-hydroxy-4-methyl-benzoyl)-piperidin-4-yl]-nicotinamide]"
2,30,O=C(NC1CCN(C(=O)c2ccc3ccccc3c2O)CC1)c1cc(F)cnc1Oc1ccc(F)cc1 [Example 81]
3,3.6,O=C(NC1CCC(NC(=O)C(O)C2CCCCC2)CC1)c1cc(F)cnc1Oc1ccc(F)cc1 (centres unmarked) [Example 106]
4,0.28,"Cc1ccc(C(=O)NC2CCC(NC(=O)c3cc(F)cnc3Oc3ccc(F)cc3)CC2)c(O)c1 (stereo not drawn) [Example 47, Syn-5-Fluoro-2-(4-fluoro-phenoxy)-N-[4-(2-hydroxy-4-methyl-benzoylamino)-cyclohexyl]-nicotinamide]"
5,4.9,"O=C(NC1CCC(NC(=O)c2c(O)cccc2F)CC1)c1cc(F)cnc1Oc1ccc(F)c(F)c1 (stereo not drawn) [Example 41, Anti-5-Fluoro-2-(3,4-difluoro-phenoxy)-N-[4-(2-fluoro-6-hydroxy-benzoylmino)-cyclohexyl]-Nicotinamide]"
6,2,CCc1cccc(Oc2ncc(F)cc2C(=O)N[C@H]2CC[C@@H](NC(=O)c3ccc(OC)cc3O)CC2)c1 [Example 157]
7,9,O=C(N[C@H]1CC[C@@H](NC(=O)c2cc(F)cnc2Oc2ccc(F)c(F)c2)CC1)c1cc(Cl)c(Cl)cc1O [Example 193]
8,91,"CC(=O)N(Cc1ccccc1O)C1CCC(NC(=O)c2cc(F)cnc2Oc2ccc(F)cc2)CC1 (stereo not drawn) [Example 44, Anti-N-{4-[Acetyl-(2-hydroxybenzyl)-amino]-cyclohexyl}-5-fluoro-2-(4-fluoro-phenoxy)-nicotinamide]"
9,4.3,"O=C(N[C@H]1CC[C@@H](C(=O)NCc2ccccc2O)CC1)c1cccnc1Oc1ccc(F)cc1 [Example 172, Syn-2-(4-Fluoro-phenoxy)-N-[4-(2-hydroxy-benzyl-carba-moyl)-cyclohexyl]-nicotinamide]"
10,0.2,COc1ccc(C(=O)N[C@H]2CC[C@@H](NC(=O)c3cc(F)cnc3Oc3cccc(F)c3)CC2)c(O)c1 [Example 152]
11,3.5,O=C(Cc1ccc(O)c(Cl)c1)N[C@H]1CC[C@@H](NC(=O)c2cc(F)cnc2Oc2ccc(F)cc2)CC1 [Example 58]
12,217,O=C(CCc1cccc(O)c1)N[C@H]1CC[C@H](NC(=O)c2cc(F)cnc2Oc2ccc(F)cc2)CC1 [Example 28]
13,0.2,O=C(N[C@H]1CC[C@@H](NC(=O)c2cc(F)cnc2Oc2ccc(F)c(F)c2)CC1)c1ccc(Cl)cc1O [Example 186]
14,0.15,O=C(N[C@H]1CC[C@@H](NC(=O)c2c(O)cccc2O)CC1)c1cc(F)cnc1Oc1ccc(F)c(F)c1 [Example 178]
15,1.9,O=C(Cc1ccc(O)c(F)c1)N[C@H]1CC[C@@H](NC(=O)c2cc(F)cnc2Oc2ccc(F)cc2)CC1 [Example 56]
16,7,Cc1ccc(C(=O)N[C@H]2CC[C@@H](NC(=O)c3cc(F)cnc3Oc3ccc(F)cc3C)CC2)c(O)c1 [Example 203]
17,22,Cc1ccc(O)c(C(=O)N[C@H]2CC[C@H](NC(=O)c3cc(F)cnc3Oc3ccc4c(c3)OCO4)CC2)c1 [Example 8]
18,30,CC(C)(CC(=O)N[C@H]1CC[C@@H](NC(=O)c2cc(F)cnc2Oc2ccc(F)cc2)CC1)C(=O)O [Example 129]
19,114,O=C(NC1CCN(C(=O)Cc2ccc(O)cc2)CC1)c1cc(F)cnc1Oc1ccc(F)cc1 [Example 88]

row,IC50 [nM],Structure (SMILES)
1,0.06,O=C(N[C@H]1CC[C@@H](NC(=O)c2cc(F)cnc2Oc2ccc(F)c(F)c2)CC1)c1ccccc1O [Example 190]
2,39.5,O=C(N[C@H]1CC[C@H](NC(=O)c2ncccc2O)CC1)c1cc(F)cnc1Oc1ccc(F)cc1 [Example 27]
3,37,O=C(NC1CCN(C(=O)CCc2ccccc2O)CC1)c1cc(F)cnc1Oc1ccc(F)cc1 [Example 91]
4,0.7,Cc1ccc(C(=O)N[C@H]2CC[C@@H](NC(=O)c3cc(F)cnc3Oc3cccc(C(F)(F)F)c3)CC2)c(O)c1 [Example 199]
5,49,O=C(O)c1ccccc1C(=O)NC1CCC(NC(=O)c2cc(F)cnc2Oc2ccc(F)cc2)CC1 (centres unmarked) [Example 76]
6,0.3,Cc1ccc(C(=O)NC2CCC(NC(=O)c3cc(F)cnc3Oc3cc(F)cc(F)c3)CC2)c(O)c1 (centres unmarked) [Example 217]
7,0.09,COc1ccc(C(=O)N[C@H]2CC[C@@H](NC(=O)c3cc(F)cnc3Oc3ccc(F)c(F)c3)CC2)c(O)c1 [Example 155]
8,0.55,Cc1ccc(O)c(C(=O)N[C@H]2CC[C@@H](NC(=O)c3cc(F)cnc3Oc3cccc(OC4CCC4)c3)CC2)c1 [Example 205]
9,4.6,COc1ccc(C(=O)N[C@H]2CC[C@@H](NC(=O)c3cc(F)cnc3Oc3ccc4c(c3)CCC4)CC2)c(O)c1 [Example 159]
10,2.8,COc1ccc(C(=O)N[C@H]2CC[C@@H](NC(=O)c3cc(F)cnc3Oc3ccc(F)cc3)CC2)cc1O [Example 54]
11,1.1,"O=C(NCc1ccccc1O)NC1CCC(NC(=O)c2cc(F)cnc2Oc2ccc(F)cc2)CC1 (stereo not drawn) [Example 72, Syn-5-Fluoro-2-(4-fluoro-phenoxy)-N-{4-[3-(2-hydroxy-benzyl)-ureido]-cyclohexyl}-nicotinamide]"
12,0.4,"Cc1ccc(C(=O)N[C@H]2CC[C@@H](NC(=O)c3cc(F)cnc3Oc3cccc(OC(F)(F)F)c3)CC2)c(O)c1 [Example 195, Syn-5-Fluoro-N-[4-(2-hydroxy-4-methyl-benzoylamino)-cyclohexyl]-2-(3-trifluoromethoxy-phenoxy)-nicotinamide]"
13,21,COC(=O)c1cccc(C(=O)N[C@H]2CC[C@@H](NC(=O)c3cc(F)cnc3Oc3ccc(F)cc3)CC2)n1 [Example 123]
14,156,O=C(N[C@H]1CC[C@H](NC(=O)c2ccc3ccccc3c2O)CC1)c1cc(F)cnc1Oc1ccc(F)cc1 [Example 22]
15,74,O=C(O)c1ccnc(C(=O)N[C@H]2CC[C@@H](NC(=O)c3cc(F)cnc3Oc3ccc(F)cc3)CC2)c1 [Example 135]
16,0.09,Cc1cccc(C(=O)NC2CCC(NC(=O)c3cc(F)cnc3Oc3ccc(F)c(F)c3)CC2)c1O (centres unmarked) [Example 208]
17,16,COc1cc(C(=O)O)ccc1C(=O)N[C@H]1CC[C@@H](NC(=O)c2cc(F)cnc2Oc2ccc(F)cc2)CC1 [Example 137]
18,7.4,O=C(NC1CCN(C(=O)c2cccc(O)c2)CC1)c1cc(F)cnc1Oc1ccc(F)cc1 [Example 80]

row,Structure (SMILES),IC50 [nM]
1,O=C(N[C@H]1CC[C@H](NC(=O)c2cc(F)cnc2Oc2ccc(F)cc2)CC1)c1cc(Cl)ccc1O [Example 20],113
2,O=C(N[C@H]1CC[C@H](NC(=O)c2c(O)cccc2F)CC1)c1cc(F)cnc1Oc1ccc(F)cc1 [Example 17],8.5
3,O=C(N[C@H]1CC[C@H](NC(=O)c2cc(F)cnc2Oc2ccc(F)cc2)CC1)c1cc(O)ccc1O [Example 26],5.4
4,COc1cc(O)c(C(=O)N[C@H]2CC[C@H](NC(=O)c3cc(F)cnc3Oc3ccc(F)cc3)CC2)c(OC)c1 [Example 30],2.6
5,O=C(N[C@H]1CC[C@@H](NC(=O)c2cc(F)cnc2Oc2ccc(F)cc2)CC1)c1cccc(O)c1 [Example 48],1.66
6,O=C(Cc1cccc(O)c1)N[C@H]1CC[C@H](NC(=O)c2cc(F)cnc2Oc2ccc(F)cc2)CC1 [Example 25],8.5
7,O=C(Cc1ccccc1O)N[C@H]1CC[C@@H](NC(=O)c2cc(F)cnc2Oc2ccc(F)cc2)CC1 [Example 51],2.09
